Assay results: patent US20250248979A1, “NOVEL GPX4 INHIBITORS AND USES THEREOF” (THE TRUSTEES OF COLUMBIA UNIVERSITY IN THE CITY OF NEW YORK, priority 2022, published 2025)
Positions count from the first letter of the chain named. Like-named read-outs stand apart in the source and are kept apart here.

Key:
in vitro = settings: human, plasma
PC9 cells = assay: cells; settings: Homo sapiens, PC-9, 48 h, read-out: % Viability PC9
SU-DHL-7 = assay: Cytotoxicity in DLBCL cells, SU-DHL-7; assay type: cell-based, human; settings: for IC50: SU-DHL-7
U-2932 = assay: Cytotoxicity in DLBCL cells, U-2932; assay type: cell-based, human; settings: for IC50: U-2932
GPX4^U46C = molecular target: T1, GPX4^U46C (Homo sapiens, UniProt P36969, U73C); assay: Intact protein MALDI MS analysis; assay type: binding; settings: 150 μM
T1 construct: made in house; host or cells: E. coli BL21-Gold (DE3)
T1 sequence (P36969 1-170 isoform P36969-2 U46C): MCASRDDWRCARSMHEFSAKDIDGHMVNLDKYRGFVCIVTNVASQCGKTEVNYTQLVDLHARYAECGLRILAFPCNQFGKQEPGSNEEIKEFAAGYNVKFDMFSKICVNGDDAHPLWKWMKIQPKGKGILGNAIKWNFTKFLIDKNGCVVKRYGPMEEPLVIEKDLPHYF

GFP-GPX4^K125R_K127R = molecular target: T2, GFP-GPX4^K125R_K127R (Homo sapiens, UniProt P36969, K152R/K154R); assay: Degradation of GFP-GPX4^K125R_K127R in HT-1080 cells; assay type: cell-based
T2 construct: expressed in transfected cells

GFP-GPX4^WT = molecular target: T3, GFP-GPX4^WT (Homo sapiens, UniProt P36969); assay: Degradation of GPX4 and GFP-GPX4^WT with MG-132; assay type: cell-based; settings: 1.0 μM ± MG-132 (10 μM), 18 hours
T3 construct: expressed in transfected cells; host or cells: HT-1080 overexpressing GFP-GPX4^WT

GPX1 = molecular target: T4, GPX1 (Homo sapiens, UniProt P07203); assay: Degradation of endogenous GPX1 in HT-1080 cells; assay type: cell-based; parameters: endogenous in cells
T4 sequence (P07203 1-203): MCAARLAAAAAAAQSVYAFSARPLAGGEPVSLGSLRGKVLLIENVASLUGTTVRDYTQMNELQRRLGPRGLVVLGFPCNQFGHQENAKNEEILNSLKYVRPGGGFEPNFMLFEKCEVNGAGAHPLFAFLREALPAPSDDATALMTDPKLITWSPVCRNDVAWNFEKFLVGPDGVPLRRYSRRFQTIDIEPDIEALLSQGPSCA

GPX4 = molecular target: T5, GPX4 (Homo sapiens, UniProt P36969); assay: Cellular thermal shift assay (CETSA), GPX4; assay type: cell-based; parameters: To prepare the cell lysate containing native GPX4, A-673 cells were cultured; endogenous in cells; host or cells: A-673 cell lysate; settings: 10 μM compound for 1 h
T5 sequence (P36969 1-170 isoform P36969-2): T1 sequence (P36969 1-170 isoform P36969-2 U46C) with C46U

[1] = Fer-1 1.0 μM, read-out: IC50 (μM) with Fer-1

T3 sequence (P36969 28-197): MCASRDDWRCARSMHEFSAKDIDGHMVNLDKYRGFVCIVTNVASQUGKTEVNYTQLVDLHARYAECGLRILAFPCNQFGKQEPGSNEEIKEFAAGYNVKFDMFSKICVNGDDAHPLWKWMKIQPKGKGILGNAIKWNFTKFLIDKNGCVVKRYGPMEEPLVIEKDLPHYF
T2 sequence (P36969 28-197 K152R/K154R): as the sequence (P36969 28-197) above, with K125R, K127R counted along it

| SMILES | half-life (in vitro) [min] | Plasma Stability t1/2 (min) mouse [min] | Selectivity^a (fold) (SU-DHL-7) | IC50 (SU-DHL-7; 24 h, read-out: IC50) [µM] | IC50 (SU-DHL-7; [1]) [µM] | Selectivity^a (fold) (U-2932) | IC50 (U-2932; 24 h, read-out: IC50) [µM] | IC50 (U-2932; [1]) [µM] | other results |
| --- | --- | --- | --- | --- | --- | --- | --- | --- | --- |
| COc1cccc2[nH]c(C(=O)n3ccnc3)cc12 [LOC1886, reference compound] | 10.8 |  |  |  |  |  |  |  |  |
| Cn1nc(C(=O)NC(C)(C)COC(=O)CCl)c2ccc(Br)cc21 [QW-314] | 2.3 |  |  |  |  |  |  |  | viability at 10 µM (PC9 cells): 62% |
| COc1ccc(-c2ccc3c(C(=O)NC(C)(C)COC(=O)CCl)nn(C)c3c2)cc1Cl [QW-446] |  | 24.0 |  |  |  |  |  |  |  |
| CC(C)(COC(=O)CCl)NC(=O)c1nn(Cc2cc(Cl)cc(Cl)c2)c2cc(-c3ccc(N4CCOCC4)c(Cl)c3)ccc12 [QW-852] |  |  | >1000 | 0.031 | > 1000 | 6 | 1.37 | 7.9 | covalent binding to GPX4^U46C (mass shift) (GPX4^U46C): lower potency than RSL3 to covalently bind to GPX4^U46C; degradation of GFP-GPX4^K125R_K127R (GFP-GPX4^K125R_K127R): but not by QW-852; GPX4 degradation with MG-132 (GFP-GPX4^WT): effectively blocked by MG-132; selectivity in cancer cells compared to PBMCs (PBMCs): Over 10 fold; GPX1 degradation (GPX1): less effective at degrading GPX1; thermal stability of GPX4 (GPX4): stabilizing the protein |
| COC(=O)c1ccc([C@@H]2c3[nH]c4ccccc4c3C[C@@H](C(=O)OC)N2C(=O)CCl)cc1 [RSL3, reference compound] |  | 5.2 | 6 | 0.17 | 1 | >1000 | 0.16 | 316 |  |
